Experimental data taken from ChEMBL document CHEMBL4334526, “Synthesis of Peptoid-Based Class I-Selective Histone Deacetylase Inhibitors with Chemosensitizing Properties” (J Med Chem, 2019).
Active and inactive are the calls of the source. The calls are words filed in the database; no cut-off is given here.

Legend:
[1] = biological target: T1, Class 1 histone deacetylase (Homo sapiens, UniProt Q13547+O15379+Q92769+Q9BY41); experiment: (§1) Inhibition of class 1 HDAC in human Cal27CisR cells assessed as potentiation of cisplatin-induced apoptosis assessed as increase in caspase-3/7 activation at 5 uM preincubated for 48 hrs followed by cisplatin addition and measured after 24 hrs by CellEvent caspase 3/7 green detection reagent/Hoechst 33342 staining based imaging analysis; assay type: cell-based
T1 sequence (O15379 whole entry, looked up): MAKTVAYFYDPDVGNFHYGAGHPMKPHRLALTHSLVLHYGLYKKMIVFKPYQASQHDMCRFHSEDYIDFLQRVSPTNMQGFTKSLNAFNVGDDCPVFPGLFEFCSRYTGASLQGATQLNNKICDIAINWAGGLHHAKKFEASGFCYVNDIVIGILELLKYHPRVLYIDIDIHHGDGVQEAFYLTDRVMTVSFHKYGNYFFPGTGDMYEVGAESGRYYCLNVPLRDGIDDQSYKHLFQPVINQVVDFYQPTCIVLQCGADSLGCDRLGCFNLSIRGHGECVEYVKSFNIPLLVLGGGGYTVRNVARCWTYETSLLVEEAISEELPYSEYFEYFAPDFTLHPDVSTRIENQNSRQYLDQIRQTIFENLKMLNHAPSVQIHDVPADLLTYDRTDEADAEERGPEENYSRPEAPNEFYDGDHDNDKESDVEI
T1 sequence (Q13547 whole entry, looked up): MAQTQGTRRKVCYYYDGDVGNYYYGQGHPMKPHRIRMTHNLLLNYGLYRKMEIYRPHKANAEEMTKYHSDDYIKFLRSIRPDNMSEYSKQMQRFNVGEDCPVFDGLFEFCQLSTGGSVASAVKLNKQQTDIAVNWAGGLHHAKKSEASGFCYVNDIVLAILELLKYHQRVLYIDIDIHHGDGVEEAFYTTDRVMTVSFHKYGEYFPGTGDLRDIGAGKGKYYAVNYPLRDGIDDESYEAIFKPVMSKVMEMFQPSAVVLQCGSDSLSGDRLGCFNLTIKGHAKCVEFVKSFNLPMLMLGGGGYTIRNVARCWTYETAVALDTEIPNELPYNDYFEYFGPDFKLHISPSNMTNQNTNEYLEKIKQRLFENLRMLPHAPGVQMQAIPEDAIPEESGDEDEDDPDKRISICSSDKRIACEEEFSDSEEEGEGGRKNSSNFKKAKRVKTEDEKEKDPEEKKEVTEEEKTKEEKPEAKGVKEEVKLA
T1 sequence (Q92769 whole entry, looked up): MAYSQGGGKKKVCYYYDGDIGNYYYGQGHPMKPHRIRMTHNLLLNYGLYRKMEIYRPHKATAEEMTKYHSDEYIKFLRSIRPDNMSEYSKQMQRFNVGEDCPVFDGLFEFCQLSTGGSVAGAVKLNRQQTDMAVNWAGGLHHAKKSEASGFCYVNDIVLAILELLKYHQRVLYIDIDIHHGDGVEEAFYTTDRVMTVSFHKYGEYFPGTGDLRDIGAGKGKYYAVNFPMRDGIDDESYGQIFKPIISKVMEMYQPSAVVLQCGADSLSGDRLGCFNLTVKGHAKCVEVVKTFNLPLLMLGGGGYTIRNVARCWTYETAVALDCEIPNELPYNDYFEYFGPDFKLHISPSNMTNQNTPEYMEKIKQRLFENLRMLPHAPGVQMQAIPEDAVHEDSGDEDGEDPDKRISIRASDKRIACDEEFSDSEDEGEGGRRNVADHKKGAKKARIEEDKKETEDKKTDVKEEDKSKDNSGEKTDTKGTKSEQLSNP
T1 sequence (Q9BY41 whole entry, looked up): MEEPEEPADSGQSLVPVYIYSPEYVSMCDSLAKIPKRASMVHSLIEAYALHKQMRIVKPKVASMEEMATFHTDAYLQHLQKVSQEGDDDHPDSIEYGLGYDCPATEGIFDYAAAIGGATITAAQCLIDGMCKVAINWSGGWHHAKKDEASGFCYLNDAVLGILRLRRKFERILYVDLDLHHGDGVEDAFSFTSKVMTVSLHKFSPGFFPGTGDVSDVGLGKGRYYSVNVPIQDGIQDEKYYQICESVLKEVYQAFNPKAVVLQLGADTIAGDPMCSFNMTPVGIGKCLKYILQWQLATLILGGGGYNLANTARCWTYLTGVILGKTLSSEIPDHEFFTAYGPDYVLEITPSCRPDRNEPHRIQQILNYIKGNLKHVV

[2] = biological target: T1, Class 1 histone deacetylase; experiment: as §1, with “CAL27” for “Cal27CisR”; assay type: cell-based; settings: CAL-27
[3] = biological target: T1, Class 1 histone deacetylase; experiment: Inhibition of class 1 HDAC in human CAL27 cells assessed as potentiation of cisplatin-induced cytotoxicity by measuring cisplatin IC50 at 5 uM preincubated for 48 hrs followed by cisplatin addition and measured after 72 hrs by MTT assay (reference value: 9.79 uM); assay type: cell-based; settings: cal-27
[4] = biological target: T1, Class 1 histone deacetylase; experiment: Inhibition of class 1 HDAC in human CAL27 cells assessed as potentiation of cisplatin-induced cytotoxicity by measuring combination index at 5 uM in presence of 1 uM cisplatin by MTT assay based Chou-Talalay analysis; assay type: cell-based; settings: CAL-27
[5] = biological target: T1, Class 1 histone deacetylase; experiment: Inhibition of class 1 HDAC in human CAL27 cells assessed as potentiation of cisplatin-induced cytotoxicity by measuring combination index at 5 uM in presence of […] cisplatin by MTT assay based Chou-Talalay analysis; assay type: cell-based; settings: CAL-27
[6] = biological target: T1, Class 1 histone deacetylase; experiment: Inhibition of class 1 HDAC in human Cal27CisR cells assessed as potentiation of cisplatin-induced cytotoxicity by measuring combination index at 5 uM in presence of 1 uM cisplatin by MTT assay based Chou-Talalay analysis; assay type: cell-based
[7] = biological target: T1, Class 1 histone deacetylase; experiment: Inhibition of class 1 HDAC in human CAL27 cells assessed as increase in histone H3 acetylation at 5 uM measured after 24 hrs by immunoblot analysis; assay type: cell-based; settings: CAL-27
[8] = biological target: T1, Class 1 histone deacetylase
[9] = biological target: T1, Class 1 histone deacetylase; remark: listed apart in the source
Description: Inhibition of class 1 HDAC in human Cal27CisR cells assessed as potentiation of cisplatin-induced cytotoxicity by measuring combination index at 0.25 uM in presence of 3.2 uM cisplatin by MTT assay based Chou-Talalay analysis

[10] = biological target: T1, Class 1 histone deacetylase; settings: CAL-27
Description: Inhibition of class 1 HDAC in human CAL27 cells assessed as potentiation of cisplatin-induced cytotoxicity by measuring combination index at 0.25 uM in presence of 1 uM cisplatin by MTT assay based Chou-Talalay analysis

[11] = biological target: T1, Class 1 histone deacetylase; settings: CAL-27; remark: listed apart in the source
Description: Inhibition of class 1 HDAC in human CAL27 cells assessed as potentiation of cisplatin-induced cytotoxicity by measuring combination index at 0.1 uM in presence of 10 uM cisplatin by MTT assay based Chou-Talalay analysis

[12] = biological target: T1, Class 1 histone deacetylase; remark: listed apart in the source
Description: Inhibition of class 1 HDAC in human Cal27CisR cells assessed as potentiation of cisplatin-induced cytotoxicity by measuring combination index at 0.10 uM in presence of 1 uM cisplatin by MTT assay based Chou-Talalay analysis

[13] = biological target: T1, Class 1 histone deacetylase; settings: CAL-27; remark: listed apart in the source
Description: Inhibition of class 1 HDAC in human CAL27 cells assessed as potentiation of cisplatin-induced cytotoxicity by measuring combination index at 0.1 uM in presence of 1 uM cisplatin by MTT assay based Chou-Talalay analysis

[14] = biological target: T1, Class 1 histone deacetylase; settings: CAL-27; remark: listed apart in the source
Description: Inhibition of class 1 HDAC in human CAL27 cells assessed as potentiation of cisplatin-induced cytotoxicity by measuring combination index at 0.25 uM in presence of 10 uM cisplatin by MTT assay based Chou-Talalay analysis

[15] = system: CAL-27; experiment: Induction of apoptosis in human CAL27 cells assessed as caspase-3/7 activation at 0.5 uM measured after 48 hrs by CellEvent caspase 3/7 green detection reagent/Hoechst 33342 staining based imaging analysis relative to control; assay type: functional
[16] = biological target: T1, Class 1 histone deacetylase; assay type: cell-based
[17] = biological target: T1, Class 1 histone deacetylase; experiment: as §1, with “activation at […] preincubated for” for “activation at 5 uM preincubated for”, “24 hrs in presence of pan caspase inhibitor QVD by CellEvent” for “24 hrs by CellEvent”; assay type: cell-based
[18] = biological target: T1, Class 1 histone deacetylase; experiment: as §1, with “CAL27” for “Cal27CisR”, “5 uM” left out; assay type: cell-based; settings: CAL-27
[19] = biological target: T2, Protein deacetylase HDAC6 (Homo sapiens) (UniProt Q9UBN7); experiment: Inhibition of HDAC6 in human CAL27 cells assessed as acetylation of alpha-tubulin at […] measured after 24 hrs by immunoblot analysis; assay type: cell-based
T2 sequence (whole entry): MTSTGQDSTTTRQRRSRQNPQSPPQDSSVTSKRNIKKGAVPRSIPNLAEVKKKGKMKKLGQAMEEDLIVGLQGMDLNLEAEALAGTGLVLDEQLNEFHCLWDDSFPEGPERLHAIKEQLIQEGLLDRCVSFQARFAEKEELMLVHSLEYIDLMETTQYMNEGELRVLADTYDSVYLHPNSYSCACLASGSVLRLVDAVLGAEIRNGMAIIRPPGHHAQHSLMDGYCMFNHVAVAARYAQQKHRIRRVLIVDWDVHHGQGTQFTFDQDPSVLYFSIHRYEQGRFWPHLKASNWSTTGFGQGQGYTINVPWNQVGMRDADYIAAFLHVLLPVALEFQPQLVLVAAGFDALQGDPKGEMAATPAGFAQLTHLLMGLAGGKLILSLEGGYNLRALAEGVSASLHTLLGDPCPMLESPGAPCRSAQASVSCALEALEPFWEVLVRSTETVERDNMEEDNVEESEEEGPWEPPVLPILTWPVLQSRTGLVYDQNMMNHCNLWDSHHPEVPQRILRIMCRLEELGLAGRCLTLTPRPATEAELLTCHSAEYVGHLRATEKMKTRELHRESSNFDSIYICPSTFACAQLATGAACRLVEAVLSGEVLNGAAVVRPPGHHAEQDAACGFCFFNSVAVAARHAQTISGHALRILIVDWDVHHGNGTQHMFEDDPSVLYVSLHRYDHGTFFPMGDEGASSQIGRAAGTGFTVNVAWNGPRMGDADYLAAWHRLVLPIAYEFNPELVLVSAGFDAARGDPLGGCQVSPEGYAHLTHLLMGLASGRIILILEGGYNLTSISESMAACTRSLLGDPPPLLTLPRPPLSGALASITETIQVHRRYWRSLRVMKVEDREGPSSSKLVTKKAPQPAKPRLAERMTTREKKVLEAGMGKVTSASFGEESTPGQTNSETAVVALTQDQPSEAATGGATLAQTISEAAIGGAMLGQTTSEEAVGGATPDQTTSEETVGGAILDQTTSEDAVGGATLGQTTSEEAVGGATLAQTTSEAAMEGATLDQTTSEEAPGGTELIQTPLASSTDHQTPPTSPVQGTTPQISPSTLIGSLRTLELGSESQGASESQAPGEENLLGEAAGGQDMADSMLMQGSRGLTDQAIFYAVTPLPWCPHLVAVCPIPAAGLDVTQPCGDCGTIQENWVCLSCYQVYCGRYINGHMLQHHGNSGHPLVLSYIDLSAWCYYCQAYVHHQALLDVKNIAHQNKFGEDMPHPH

[20] = biological target: T1, Class 1 histone deacetylase; experiment: Inhibition of class 1 HDAC in human CAL27 cells assessed as potentiation of cisplatin-induced apoptosis assessed as increase in caspase-3/7 activation at […] preincubated for 48 hrs followed by cisplatin addition and measured after 24 hrs in presence of pan caspase inhibitor QVD by CellEvent caspase 3/7 green detection reagent/Hoechst 33342 staining based imaging analysis; assay type: cell-based; settings: CAL-27

Question: Which inhibition [1] does the source give for `Cc1cc(C)cc(C(=O)N(CCCCCC(=O)Nc2cc(-c3ccccc3)ccc2N)CC(=O)NCc2ccccc2)c1` here?
Answer: Active

Question: What about the inhibition [2] of the same molecule?
Answer: Active

Question: What about the IC50 [3] of the same molecule?
Answer: 1.86 µM

Question: And the CI [4]?
Answer: 0.76

Question: And the CI [5]?
Answer: 0.1

Question: And the CI [6]?
Answer: < 0.2

Question: And the inhibition [7]?
Answer: Active

Question: For `CN(C)c1ccc(C(=O)N(CC(=O)NCc2ccccc2)Cc2ccc(C(=O)Nc3ccccc3N)cc2)cc1`, which CI [8] is on record?
Answer: < 0.2

Question: And the CI [9]?
Answer: 0.44

Question: And the CI [10]?
Answer: 0.11

Question: And the CI [11]?
Answer: 0.33

Question: What about the CI [12] of the same molecule?
Answer: < 0.2

Question: And the CI [13]?
Answer: 0.91

Question: And the CI [14]?
Answer: 0.02

Question: And the Activity [15]?
Answer: 12%

Question: And the IC50 [16]?
Answer: 8.42 µM

Question: Which inhibition [17] does the source give for `Cc1cc(C)cc(C(=O)N(CC(=O)NCc2ccccc2)Cc2ccc(C(=O)Nc3cc(-c4ccccc4)ccc3N)cc2)c1` here?
Answer: inactive

Question: What about the inhibition [18] of the same molecule?
Answer: Active

Question: What about the inhibition [19] of the same molecule?
Answer: inactive

Question: And the inhibition [20]?
Answer: inactive
